Measured values reported in US10638756B2, “Molecules having pesticidal utility, and intermediates, compositions, and processes, related thereto” (Dow AgroSciences LLC, priority 2017, dated 2020).

Columns and labels:
Type in all cases: in vivo
[1] = system: Beet Armyworm (Spodoptera exigua); test: Bioassay on Beet Armyworm (BAW), 128-well diet tray assay; settings: for mortality at 50 µg/cm2: Spodoptera exigua, 168 h, 50 μg/cm^2 on artificial diet, second instar larvae, five to seven days, read-out: BAW % Control (or Mortality) rating
[2] = system: Cabbage Looper (Trichoplusia ni); test: Bioassay on Cabbage Looper (CL), 128-well diet tray assay; settings: 168 h, 50 μg/cm^2 on artificial diet, second instar larvae, five to seven days, read-out: CL % Control (or Mortality) rating
Summary of the method: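 One to five second-instar larvae per well on artificial diet surface-treated with 50 μg/cm^2 test molecule (applied in 90:10 acetone-water, dried). Held 5–7 days at 25° C, 14:10 light-dark; percent mortality recorded per well and averaged over eight wells.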

[3] = system: Green Peach Aphid (Myzus persicae); test: Bioassay on Green Peach Aphid (GPA), foliar spray on cabbage seedlings; settings: 72 h, 200 ppm foliar spray on cabbage seedlings, three days, Abbott corrected % control, read-out: GPA % Control (or Mortality) rating
Description: Certain molecules disclosed in this document were tested against GPA using procedures described in the following example. In the reporting of the results, the “GPA & YFM Rating Table” was used (See Table Section).
Cabbage seedlings grown in 3-inch pots, with 2-3 small (3-5 cm) true leaves, were used as test substrate. The seedlings were infested with 20-50 GPA (wingless adult and nymph stages) one day prior to chemical application. Four pots with individual seedlings were used for each treatment. Test molecules (2 mg) were dissolved in 2 mL of acetone/methanol (1:1) solvent, forming stock solutions of 1000 ppm test molecule. The stock solutions were diluted 5× with 0.025% Tween 20 in water to obtain the solution at 200 ppm test molecule. A hand-held aspirator-type sprayer was used for spraying a solution to both sides of […] leaves until runoff. Reference plants (solvent check) were sprayed with the diluent only containing 20% by volume of acetone/methanol (1:1) solvent. Treated plants were held in a holding room for three days at approximately 25° C. and ambient relative humidity (RH) prior to grading. Evaluation was conducted by counting the number of live aphids per plant under a microscope. Percent control was measured using Abbott's correction formula (W. S. Abbott, “A Method of Computing the Effectiveness of an Insecticide” J. Econ. Entomol. 18 (1925), pp. 265-267) as follows. Corrected % Control=100*(X−Y)/X where X=No. of live aphids on solvent check plants and Y=No. of live aphids on treated plants. The results are indicated in the table entitled “Table ABC: Biological Results” (See Table Section).

[4] = system: Yellow Fever Mosquito (Aedes aegypti); settings: about 1 day-old larvae, 3 days, scored on mortality
Description: Certain molecules disclosed in this document were tested against YFM using procedures described in the following paragraph. In the reporting of the results, the “GPA & YFM Rating Table” was used (See Table Section).
Master plates containing 400 μg of a molecule dissolved in 100 μL of dimethyl sulfoxide (DMSO) (equivalent to a 4000 ppm solution) are used. A master plate of assembled molecules contains 15 μL per well. To this plate, 135 μL of a 90:10 water/acetone mixture is added to each well. A robot (Biomek® NXP Laboratory Automation Workstation) is programmed to dispense 15 μL aspirations from the master plate into an empty 96-well shallow plate (“daughter” plate). There are 6 reps (“daughter” plates) created per master. The created “daughter” plates are then immediately infested with YFM larvae.
The day before plates are to be treated, mosquito eggs are placed in Millipore water containing liver powder to begin hatching (4 g. into 400 mL). After the “daughter” plates are created using the robot, they are infested with 220 μL of the liver powder/larval mosquito mixture (about 1 day-old larvae). After plates are infested with mosquito larvae, a non-evaporative lid is used to cover the plate to reduce drying. Plates are held at room temperature for 3 days prior to grading. After 3 days, each well is observed and scored based on mortality. The results are indicated in the table entitled “Table ABC: Biological Results” (See Table Section).

Structure (SMILES): O=C(Nn1ccnc1)c1ccc(/C(F)=C/C(c2cc(Cl)c(Cl)c(Cl)c2)C(F)(F)F)cc1C(F)(F)F (centres unmarked) [F10, (Z)—N-(1H-Imidazol-1-yl)-4-(1,4,4,4-tetrafluoro-3-(3,4,5-trichlorophenyl)but-1-en-1-yl)-2-(trifluoromethyl)benzamide]
- mortality at 50 µg/cm2 [1]: 50 to 100%
- mortality at 50 µg/cm2 [2]: 50 to 100%
- mortality at 200 ppm [3]: 0 to 80%

Structure (SMILES): O=C(NNc1ncccn1)c1ccc(/C(F)=C/C(c2cc(Cl)c(Cl)c(Cl)c2)C(F)(F)F)cc1C(F)(F)F (centres unmarked) [F97, (Z)—N′-(pyrimidin-2-yl)-4-(1,4,4,4-tetrafluoro-3-(3,4,5-trichlorophenyl)but-1-en-1-yl)-2-(trifluoromethyl)benzohydrazide]
- BAW (Table CD-1) ([1]; 0.05 μg/cm^2): 100
- BAW (Table CD-1) ([1]; 5.0 μg/cm^2): 100
- BAW (Table CD-1) ([1]; 50 μg/cm^2): 100
- mortality at 50 µg/cm2 [1]: 50 to 100%
- mortality at 50 µg/cm2 [2]: 50 to 100%
- mortality at 200 ppm [3]: 80 to 100%

Structure (SMILES): C#CCN(C(=O)c1ccc(/C(F)=C/C(c2cc(Cl)c(Cl)c(Cl)c2)C(F)(F)F)cc1C(F)(F)F)N(C)c1ncccn1 (centres unmarked) [F180, (Z)—N′-Methyl-N-(prop-2-yn-1-yl)-N′-(pyrimidin-2-yl)-4-(1,4,4,4-tetrafluoro-3-(3,4,5-trichlorophenyl)but-1-en-1-yl)-2-(trifluoromethyl)benzohydrazide]
- mortality at 50 µg/cm2 [1]: 50 to 100%
- mortality at 50 µg/cm2 [2]: 50 to 100%
- YFM % Control (or Mortality) rating [4]: A (80-100)
- mortality at 200 ppm [3]: 0 to 80%

Structure (SMILES): O=C(NNc1ncccn1)c1ccc(/C(F)=C/C(c2cc(Cl)c(F)c(Cl)c2)C(F)(F)F)cc1C(F)(F)F (centres unmarked) [F4, (Z)-4-(3-(3,5-Dichloro-4-fluorophenyl)-1,4,4,4-tetrafluorobut-1-en-1-yl)-N′-(pyrimidin-2-yl)-2-(trifluoromethyl)benzohydraziderazide]
- mortality at 50 µg/cm2 [1]: 50 to 100%
- mortality at 50 µg/cm2 [2]: 50 to 100%
- mortality at 200 ppm [3]: 0 to 80%

Structure (SMILES): CN(NC(=O)c1ccc(/C(F)=C/C(c2cc(Cl)c(Cl)c(Cl)c2)C(F)(F)F)cc1C(F)(F)F)c1ncccn1 (centres unmarked) [F71, (Z)—N′-Methyl-N′-(pyrimidin-2-yl)-4-(1,4,4,4-tetrafluoro-3-(3,4,5-trichlorophenyl)but-1-en-1-yl)-2-(trifluoromethyl)benzohydrazide]
- mortality at 50 µg/cm2 [1]: 50 to 100%
- mortality at 50 µg/cm2 [2]: 50 to 100%
- mortality at 200 ppm [3]: 80 to 100%

Structure (SMILES): O=C(NNc1ncc(Cl)cn1)c1ccc(/C(F)=C/C(c2cc(Cl)c(Cl)c(Cl)c2)C(F)(F)F)cc1C(F)(F)F (centres unmarked) [F63, (Z)—N′-(5-Chloropyrimidin-2-yl)-4-(1,4,4,4-tetrafluoro-3-(3,4,5-trichlorophenyl)but-1-en-1-yl)-2-(trifluoromethyl)benzohydrazide]
- mortality at 50 µg/cm2 [1]: 50 to 100%
- mortality at 50 µg/cm2 [2]: 50 to 100%
- YFM % Control (or Mortality) rating [4]: A (80-100)
- mortality at 200 ppm [3]: 0 to 80%

Structure (SMILES): CCN(NC(=O)c1ccc(/C(F)=C/C(c2cc(Cl)c(Cl)c(Cl)c2)C(F)(F)F)cc1C(F)(F)F)c1ncccn1 (centres unmarked) [F130, (Z)—N′-Ethyl-N′-(pyrimidin-2-yl)-4-(1,4,4,4-tetrafluoro-3-(3,4,5-trichlorophenyl)but-1-en-1-yl)-2-(trifluoromethyl)benzohydrazide]
- mortality at 50 µg/cm2 [1]: 50 to 100%
- mortality at 50 µg/cm2 [2]: 50 to 100%
- YFM % Control (or Mortality) rating [4]: A (80-100)

Structure (SMILES): O=C(NNc1ccccc1)c1ccc(/C(F)=C/C(c2cc(Cl)c(Cl)c(Cl)c2)C(F)(F)F)cc1C(F)(F)F (centres unmarked) [F133, (Z)—N′-Phenyl-4-(1,4,4,4-tetrafluoro-3-(3,4,5-trichlorophenyl)but-1-en-1-yl)-2-(trifluoromethyl)benzohydrazide]
- mortality at 50 µg/cm2 [1]: 50 to 100%
- mortality at 50 µg/cm2 [2]: 50 to 100%
- YFM % Control (or Mortality) rating [4]: A (80-100)

Structure (SMILES): N#Cc1ccc(NNC(=O)c2ccc(/C(F)=C/C(c3cc(Cl)c(Cl)c(Cl)c3)C(F)(F)F)cc2C(F)(F)F)cc1 (centres unmarked) [F111, (Z)—N′-(4-Cyanophenyl)-4-(1,4,4,4-tetrafluoro-3-(3,4,5-trichlorophenyl)but-1-en-1-yl)-2-(trifluoromethyl)benzohydrazide]
- mortality at 50 µg/cm2 [1]: 50 to 100%
- mortality at 50 µg/cm2 [2]: 50 to 100%
- YFM % Control (or Mortality) rating [4]: A (80-100)

Structure (SMILES): O=C(NNc1ncccn1)c1ccc(/C(F)=C/C(c2ccc(Br)c(Cl)c2)C(F)(F)F)cc1C(F)(F)F (centres unmarked) [F16, (Z)-4-(3-(4-Bromo-3-chlorophenyl)-1,4,4,4-tetrafluorobut-1-en-1-yl)-N′-(pyrimidin-2-yl)-2-(trifluoromethyl)benzohydrazide]
- mortality at 50 µg/cm2 [1]: 50 to 100%
- mortality at 50 µg/cm2 [2]: 50 to 100%
- YFM % Control (or Mortality) rating [4]: A (80-100)

Structure (SMILES): O=C(NNc1c(F)cccc1Cl)c1ccc(/C(F)=C/C(c2cc(Cl)c(Cl)c(Cl)c2)C(F)(F)F)cc1C(F)(F)F (centres unmarked) [F1, (Z)—N′-(2-chloro-6-fluorophenyl)-4-(1,4,4,4-tetrafluoro-3-(3,4,5-trichlorophenyl)but-1-en-1-yl)-2-(trifluoromethyl)benzohydrazide]
- mortality at 50 µg/cm2 [1]: 50 to 100%
- mortality at 50 µg/cm2 [2]: 50 to 100%
- YFM % Control (or Mortality) rating [4]: A (80-100)

Structure (SMILES): O=C(NNc1ncccn1)c1ccc(/C(F)=C/C(c2cc(Cl)c(Cl)c(Cl)c2)C(F)(F)F)cc1Br (centres unmarked) [F128, (Z)-2-Bromo-N′-(pyrimidin-2-yl)-4-(1,4,4,4-tetrafluoro-3-(3,4,5-trichlorophenyl)but-1-en-1-yl)benzohydrazide]
- mortality at 50 µg/cm2 [1]: 50 to 100%
- mortality at 50 µg/cm2 [2]: 50 to 100%
- YFM % Control (or Mortality) rating [4]: A (80-100)
